# Measurements taken from PubChem BioAssay (NCI).
# “And” between values parts separate entries of the source, which are not always exact repeats. Equal entries are not always repeated.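 96-well plates; 48 h exposure; 5 concentrations. Endpoints by linear interpolation between flanking doses. Not reached: highest tested concentration assigned. GI50: concentration for 50% inhibition of growth. At the TGI there is no net growth.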
# Legend:
# Test in all cases: NCI tumour cell line growth inhibition, 48 h
# A549 NSCLC = test system: A549 NSCLC
# RXF 393 renal = test system: RXF 393 renal
# SNB-75 CNS = test system: SNB-75 CNS
# K-562 leukemia = test system: K-562 leukemia
# SN12C renal = test system: SN12C renal
# DU-145 prostate = test system: DU-145 prostate
# SF-539 CNS = test system: SF-539 CNS
# OVCAR-5 ovarian = test system: OVCAR-5 ovarian
# NCI-H460 lung = test system: NCI-H460 lung
# UACC-62 melanoma = test system: UACC-62 melanoma
SMILES,TGI (A549 NSCLC),TGI (RXF 393 renal),TGI (SNB-75 CNS),TGI (K-562 leukemia),TGI (SN12C renal),TGI (DU-145 prostate),TGI (SF-539 CNS),TGI (OVCAR-5 ovarian),TGI (NCI-H460 lung),TGI (UACC-62 melanoma),GI50 (A549 NSCLC),GI50 (RXF 393 renal),GI50 (SNB-75 CNS),GI50 (K-562 leukemia),GI50 (SN12C renal),GI50 (SF-539 CNS),GI50 (NCI-H460 lung),GI50 (UACC-62 melanoma),GI50 (OVCAR-5 ovarian)
CC(=O)OCC1OC(N2C(=O)CC(N)=Nc3ccccc32)C(OC(C)=O)C(OC(C)=O)C1OC(C)=O (centres undefined),> 100 µM,95.1 µM,> 100 µM,> 100 µM,> 100 µM,> 100 µM,67.5 µM,> 100 µM,> 100 µM,> 100 µM,,,,,,,,,
Nc1nccc2c1ncn2C1C=C(CO)C(O)C1O (centres undefined),> 1000 µM,> 1000 µM,> 1000 µM,> 1000 µM,> 1000 µM,,> 1000 µM,> 54.1 µM,> 1000 µM,> 1000 µM,> 1000 µM,851 µM,> 1000 µM,0.249 µM,0.351 µM,711 µM,0.578 µM,6.88 µM,
Cc1ccc(NC(=O)CC(=O)n2nc(-c3ccccc3)c(N=Nc3ccccc3C(=O)O)c2-c2ccccc2)cc1,> 100 µM,> 100 µM,,> 100 µM,> 100 µM,,> 100 µM,> 100 µM,,> 100 µM,,,,,,,,,
O=C1/C(=C/c2ccc3c(c2)OCO3)Sc2scc(-c3ccc(O)c(O)c3)[n+]21,46.3 µM,,5.54 µM,2.93 µM,4.7 µM,13.1 µM,7.84 µM,30.6 µM,12.8 µM,8.28 µM,,,,,,,,,
Cc1cc(O)c2cc3c(O)c(O)ccc3cc2c1,> 26.3 µM,14.1 µM,8.95 µM,3.33 µM,17.3 µM,> 50.8 µM,3.27 µM,13.5 µM,3.63 µM,22.6 µM,,,,,,,,,
O=CN(O)CC(=O)O.[Ni],,> 100 µM,> 100 µM,> 100 µM,> 100 µM,> 100 µM,> 100 µM,> 100 µM,> 100 µM,> 100 µM,,,,,,,,,
OCCSCc1cc(Cl)cc(Cl)c1O,> 100 µM,> 100 µM,,> 100 µM,> 100 µM,> 100 µM,,> 100 µM,> 100 µM,> 100 µM,,,,,,,,,
NS(=O)(=O)c1ccc(N=Nc2ccc(O)c(O)c2)cc1,48.7 µM,34.8 µM,60.8 µM,> 100 µM,44.9 µM,> 100 µM,45.1 µM,> 100 µM,58.9 µM,,,,,,,,,,
CC(=O)C1=C(C)N(c2ccc(C)cc2)C2(O)C=CC(=O)C3=C(O)c4ccccc4C(=O)C312 (centres undefined),> 100 µM,> 100 µM,49.9 µM,> 100 µM,36.9 µM,> 100 µM,97.6 µM,56.2 µM,> 100 µM,27.4 µM,,,,,,,,,
CC(C)(C)C(=O)CC(=O)C(F)(F)C(F)(F)C(F)(F)F.CC(C)(C)C(=O)CC(=O)C(F)(F)C(F)(F)C(F)(F)F.CC(C)(C)C(=O)CC(=O)C(F)(F)C(F)(F)C(F)(F)F.[Er],> 100 µM,,> 100 µM,> 100 µM,> 100 µM,> 100 µM,> 100 µM,> 100 µM,> 100 µM,> 100 µM,,,,,,,,,
Cc1ccc([S+](c2ccccc2)c2cc(C)ccc2C)cc1 (centres undefined),> 100 µM,,2.9 µM,> 100 µM,46.3 µM,,> 100 µM,,> 100 µM,> 100 µM,,,,,,,,,
O=CNNC(=O)CSc1nc2ccc(I)cc2c(=O)n1Cc1ccccc1,> 100 µM,81.4 µM,> 100 µM,> 100 µM,79.8 µM,> 100 µM,> 100 µM,> 100 µM,50.9 µM,47.6 µM,,,,,,,,,
O=C1CC(NC2CC(=O)c3c(Br)sc(Br)c32)c2c(Br)sc(Br)c21 (centres undefined),38.9 µM,8.86 µM,31.4 µM,> 21.5 µM,3.42 µM,16.5 µM,,41.4 µM,38.2 µM,24.2 µM,,,,,,,,,
COC[C@@H]1Cc2cc(OC)c3c(c2[C@H](c2ccc(OC)c(OC)c2)[C@H]1COC)OCO3,> 100 µM,> 100 µM,83.2 µM,,> 100 µM,,> 100 µM,> 100 µM,> 100 µM,> 100 µM,,,,,,,,,
O=NN(CCCl)C(=O)Nc1ccc(Cl)c(Cl)c1,> 100 µM,> 100 µM,> 100 µM,> 100 µM,> 100 µM,,> 100 µM,> 100 µM,> 100 µM,> 100 µM,,,,,,,,,
O=S(=O)(c1ccccc1)[C@@H]1[C@H]2C=C[C@](CS)(O2)[C@H]1S(=O)(=O)c1ccccc1,> 100 µM,> 100 µM,> 100 µM,36.9 µM,> 100 µM,> 100 µM,,> 100 µM,> 100 µM,> 100 µM,,,,,,,,,
COc1cc(CCC(=O)O)c2cc3ccccc3cc2c1O,52.6 µM,,,42.4 µM,31.7 µM,,,45.9 µM,47.2 µM,37.7 µM,,,,,,,,,
O=[N+]([O-])c1ccc(/C=N/n2c(CCc3n[nH]c(=S)n3/N=C/c3ccc([N+](=O)[O-])o3)n[nH]c2=S)o1,,32.1 µM,,> 100 µM,,29.7 µM,> 100 µM,> 100 µM,> 100 µM,,,,,,,,,,
O=C1CSc2sc(=S)sc2S1,> 100 µM,> 100 µM,> 100 µM,> 100 µM,> 100 µM,,> 100 µM,> 100 µM,> 100 µM,> 100 µM,,,,,,,,,
Oc1ccc(NCc2cc(O)ccc2O)cc1,> 100 µM,28.8 µM,33 µM,55.2 µM,39.3 µM,32.9 µM,56.4 µM,35.9 µM,39.1 µM,29.3 µM,,,,,,,,,
COc1cccc2c1C(=O)c1c(O)c3c(c(O)c1C2=O)C[C@@](O)(C(C)=O)C[C@@H]3OC1CC(N(C)C)C(O)C(C)O1 (some centres undefined),0.423 µM and 1.65 µM,,,1.09 µM and 0.182 µM,2.15 µM and 1.01 µM,0.00739 µM,,,,,0.0816 µM and 0.035 µM,0.0487 µM and < 0.0151 µM,0.138 µM and 0.0219 µM,0.00456 µM,0.0164 µM,0.0173 µM,0.00786 µM,0.0372 µM and < 0.0115 µM,0.0266 µM and 0.0147 µM
O=C1NC2(NC(=O)C1=O)Nc1ccccc1S2,> 100 µM,> 100 µM,> 100 µM,> 64.7 µM,> 61.4 µM,,62.7 µM,> 100 µM,> 100 µM,63.8 µM,,,,,,,,,
CC(C)(C)OC(=O)N1CCCC1C(=O)NCCNc1ccc(NCCNC(=O)C2CCCN2C(=O)OC(C)(C)C)c2c1C(=O)c1ccccc1C2=O (centres undefined),33.9 µM,,87.9 µM,> 100 µM,,,30.1 µM,30.6 µM,,23.8 µM,,,,,,,,,
